Data taken from publication PMC2362906, “Effects of new 17α-hydroxylase/C17,20-lyase inhibitors on LNCaP prostate cancer cell growth in vitro and in vivo” (British Journal of Cancer, 1999).
Entries after “also recorded” stand apart in the source; their conditions may differ.

Columns and labels:
[1] = biological target: T1, human 17α-hydroxylase/C17,20-lyase (P450c17) expressed in LNCaP-CYP17 cells (Homo sapiens, UniProt P05093); assay: [3H]-acetic acid releasing assay (AARA) with LNCaP-CYP17 cells; type: cell-based; details: LNCaP-CYP17 cells, 7 μM [21-3H]17-OHP5, 16 h; mean ± s.e.m., three experiments
T1 sequence (P05093 9-508 limits assumed): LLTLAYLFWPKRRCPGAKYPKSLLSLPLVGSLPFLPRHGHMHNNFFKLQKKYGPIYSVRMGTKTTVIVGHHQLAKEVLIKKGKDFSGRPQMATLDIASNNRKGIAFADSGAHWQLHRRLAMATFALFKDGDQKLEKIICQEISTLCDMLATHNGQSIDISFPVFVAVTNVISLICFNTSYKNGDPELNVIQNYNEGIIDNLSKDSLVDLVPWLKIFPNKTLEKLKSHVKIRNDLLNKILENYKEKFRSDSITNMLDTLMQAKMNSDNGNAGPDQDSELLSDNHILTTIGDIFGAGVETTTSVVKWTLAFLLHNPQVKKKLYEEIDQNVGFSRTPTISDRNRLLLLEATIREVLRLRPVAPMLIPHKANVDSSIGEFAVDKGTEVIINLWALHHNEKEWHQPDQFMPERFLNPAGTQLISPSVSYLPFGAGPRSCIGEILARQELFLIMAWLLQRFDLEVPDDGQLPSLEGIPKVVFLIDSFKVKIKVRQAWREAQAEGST

[2] = test system: LNCaP cells; assay: LNCaP cell growth in steroid-free medium; type: cell-based, human; details: steroid-free medium
Excerpt: Prostate cancer is the most common malignancy and the second leading cause of cancer-related deaths among men in the US and the UK (Shibata et al, 1998). […] Steroidal 17-hydroxylase/C17,20 -lyase (P450c17) (EC 1.14.99.0) was selected as the target enzyme for inhibition, as this is a key regulatory enzyme of androgen synthesis. P450c17 catal- yses two sequential reactions in the steroid biosynthetic pathway and converts pregnenolone and progesterone to the C-19 andro- gens, dehydroepiandrosterone and androstenedione respectively. This enzyme has an identical amino acid sequence in testicular and adrenal tissues (Chung et al, 1987). […] In order to evaluate the effectiveness of these inhibitors we developed a multi-step system, which utilized the LNCaP human prostate cancer cell line. LNCaP cells remain the only androgen receptor (AR)-positive prostate cancer cell line, that can be readily grown in tissue culture (Horoszewicz et al, 1983). These cells respond to androgens with increased cell proliferation and elevated expression of prostate specific antigen (PSA) (Berns et al, 1993). LNCaP cells at early passages are not only androgen-responsive, but also androgen- dependent (Pousette et al, 1997). This is similar to the situation in most tumours of prostatic cancer patients, which are initially highly responsive and dependent on androgens. […] Therefore, we employed LNCaP cells as a model for evaluating the effectiveness of our new inhibitors of androgen synthesis. In this study the compounds selected for evaluation were two groups of azolyl steroids. […] Here we report on the application of LNCaP-CYP17-transfected cells for determining the inhibitory potencies of the new compounds against the P450c17 enzyme. […] We designed and evaluated two groups of azolyl steroids: 5-non-competitive inhibitors (5NCIs), VN/63-1, VN/85-1, VN/87-1 and their corresponding 4 derivatives (4NCIs), VN/107-1, VN/108-1 and VN/109-1. The human P450c17 gene was transfected into LNCaP human prostate cancer cells, and the resultant LNCaP- CYP17 cells were utilized to evaluate the inhibitory potency of the new azolyl steroids. […] We further evaluated our inhibitors in male severe combined immuno- deficient mice bearing LNCaP tumour xenografts. […] We also utilized wild-type LNCaP prostatic carcinoma cells for evaluating the direct effects of new azolyl steroids on proliferation of these cells in vitro and in vivo. MATERIALS AND METHODS Materials The human prostate cancer cell line LNCaP was obtained from the American Type Culture Collection (Rockville, MD, USA). RPMI- 1640 medium, trypsin-EDTA (0.25%/0.02%), penicillin/strepto- mycin (P/S), geniticin (G418), and LipofectAMINE were from Gibco-BRL (Grand Island, NY, USA). […]

[3] = biological target: human prostatic 5-reductase; set-up: method as in Njar et al, 1998; details: human prostatic microsomes; reported previously; ref Njar et al, 1998; cited from earlier work
[4] = biological target: T2, LNCaP androgen receptor (Homo sapiens, UniProt P10275, T878A); assay: Androgen receptor binding assay ([3H]R1881 displacement in LNCaP cells); details: from growth and binding results
T2 construct: endogenous in cells; host or cells: LNCaP (wild-type, untransfected)
T2 sequence (P10275 whole entry T878A): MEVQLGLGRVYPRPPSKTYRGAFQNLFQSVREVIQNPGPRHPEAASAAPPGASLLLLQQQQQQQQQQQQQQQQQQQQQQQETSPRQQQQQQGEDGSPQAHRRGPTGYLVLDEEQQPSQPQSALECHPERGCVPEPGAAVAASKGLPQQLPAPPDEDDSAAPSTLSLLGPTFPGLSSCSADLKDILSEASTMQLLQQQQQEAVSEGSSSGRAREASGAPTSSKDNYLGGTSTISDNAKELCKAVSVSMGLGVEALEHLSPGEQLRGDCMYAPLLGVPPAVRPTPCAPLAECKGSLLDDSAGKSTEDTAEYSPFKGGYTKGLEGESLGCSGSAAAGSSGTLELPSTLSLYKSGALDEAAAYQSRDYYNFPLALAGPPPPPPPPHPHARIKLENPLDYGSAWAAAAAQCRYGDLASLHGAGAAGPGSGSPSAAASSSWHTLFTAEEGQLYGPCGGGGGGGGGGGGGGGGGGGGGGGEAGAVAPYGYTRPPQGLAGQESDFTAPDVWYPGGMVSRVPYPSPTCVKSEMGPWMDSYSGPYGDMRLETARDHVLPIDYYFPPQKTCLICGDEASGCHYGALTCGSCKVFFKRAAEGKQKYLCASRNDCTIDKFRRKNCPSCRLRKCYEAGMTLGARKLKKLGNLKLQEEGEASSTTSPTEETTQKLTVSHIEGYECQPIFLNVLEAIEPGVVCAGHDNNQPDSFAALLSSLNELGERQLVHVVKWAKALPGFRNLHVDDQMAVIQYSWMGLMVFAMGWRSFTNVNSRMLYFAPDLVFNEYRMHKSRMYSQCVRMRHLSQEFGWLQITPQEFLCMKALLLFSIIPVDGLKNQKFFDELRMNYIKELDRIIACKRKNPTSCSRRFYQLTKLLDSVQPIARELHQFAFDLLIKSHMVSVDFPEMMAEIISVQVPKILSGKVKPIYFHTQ
Excerpt: Prostate cancer is the most common malignancy and the second leading cause of cancer-related deaths among men in the US and the UK (Shibata et al, 1998). […] Steroidal 17-hydroxylase/C17,20 -lyase (P450c17) (EC 1.14.99.0) was selected as the target enzyme for inhibition, as this is a key regulatory enzyme of androgen synthesis. P450c17 catal- yses two sequential reactions in the steroid biosynthetic pathway and converts pregnenolone and progesterone to the C-19 andro- gens, dehydroepiandrosterone and androstenedione respectively. This enzyme has an identical amino acid sequence in testicular and adrenal tissues (Chung et al, 1987). […] In order to evaluate the effectiveness of these inhibitors we developed a multi-step system, which utilized the LNCaP human prostate cancer cell line. LNCaP cells remain the only androgen receptor (AR)-positive prostate cancer cell line, that can be readily grown in tissue culture (Horoszewicz et al, 1983). […] We designed and evaluated two groups of azolyl steroids: 5-non-competitive inhibitors (5NCIs), VN/63-1, VN/85-1, VN/87-1 and their corresponding 4 derivatives (4NCIs), VN/107-1, VN/108-1 and VN/109-1. […] We further evaluated our inhibitors in male severe combined immuno- deficient mice bearing LNCaP tumour xenografts. […]

[5] = test system: serum DHT; assay: Serum DHT (RIA) in SCID mice; type: in vivo, male SCID mice; details: Table 2, first experiment, 28 days of treatment, 50 mg kg-1 day-1; control 243.8
Excerpt: (§1) Prostate cancer is the most common malignancy and the second leading cause of cancer-related deaths among men in the US and the UK (Shibata et al, 1998). […] Steroidal 17-hydroxylase/C17,20 -lyase (P450c17) (EC 1.14.99.0) was selected as the target enzyme for inhibition, as this is a key regulatory enzyme of androgen synthesis. P450c17 catal- yses two sequential reactions in the steroid biosynthetic pathway and converts pregnenolone and progesterone to the C-19 andro- gens, dehydroepiandrosterone and androstenedione respectively. This enzyme has an identical amino acid sequence in testicular and adrenal tissues (Chung et al, 1987). […] In order to evaluate the effectiveness of these inhibitors we developed a multi-step system, which utilized the LNCaP human prostate cancer cell line. LNCaP cells remain the only androgen receptor (AR)-positive prostate cancer cell line, that can be readily grown in tissue culture (Horoszewicz et al, 1983). These cells respond to androgens with increased cell proliferation and elevated expression of prostate specific antigen (PSA) (Berns et al, 1993). LNCaP cells at early passages are not only androgen-responsive, but also androgen- dependent (Pousette et al, 1997). This is similar to the situation in most tumours of prostatic cancer patients, which are initially highly responsive and dependent on androgens. […] Therefore, we employed LNCaP cells as a model for evaluating the effectiveness of our new inhibitors of androgen synthesis. In this study the compounds selected for evaluation were two groups of azolyl steroids. […] Here we report on the application of LNCaP-CYP17-transfected cells for determining the inhibitory potencies of the new compounds against the P450c17 enzyme. […] We designed and evaluated two groups of azolyl steroids: 5-non-competitive inhibitors (5NCIs), VN/63-1, VN/85-1, VN/87-1 and their corresponding 4 derivatives (4NCIs), VN/107-1, VN/108-1 and VN/109-1. The human P450c17 gene was transfected into LNCaP human prostate cancer cells, and the resultant LNCaP- CYP17 cells were utilized to evaluate the inhibitory potency of the new azolyl steroids. […] We further evaluated our inhibitors in male severe combined immuno- deficient mice bearing LNCaP tumour xenografts. […] We also utilized wild-type LNCaP prostatic carcinoma cells for evaluating the direct effects of new azolyl steroids on proliferation of these cells in vitro and in vivo. MATERIALS AND METHODS Materials The human prostate cancer cell line LNCaP was obtained from the American Type Culture Collection (Rockville, MD, USA). RPMI- 1640 medium, trypsin-EDTA (0.25%/0.02%), penicillin/strepto- mycin (P/S), geniticin (G418), and LipofectAMINE were from Gibco-BRL (Grand Island, NY, USA). Fetal bovine serum (FBS) was obtained from Summit Biotechnology Inc. (Fort Collins, CO, USA) and steroid-free FBS was prepared as described previously (Klus et al, 1996). Phenol red free IMEM and trypsin-versine were purchased from Biofluids Inc. (Rockville, MD, USA). Chloroform and acetonitrile were purchased from JT Baker, Inc (Phillipsburg, NJ, USA). Hydroxypropyl cellulose (HPC) was purchased from Sigma Chemical Co. (St Louis, MO, USA). The PSA enzyme- linked immunusorbent assay (ELISA) kit was from DSL Inc. (Webster, TX, USA). Matrigel was generously supplied by Dr Hynda Kleinman (NIH, Bethesda, MD, USA). Inhibitors of androgen synthesis: VN/63-1, VN/85-1, VN/87-1, VN/107-1, VN/108-1 and VN/109-1 were synthesized in our labo- ratory as previously described (Njar et al, 1998). […] Metribolone [17-methyl-3 H]-R1881 ([3 H]-R1881: specific activity 86 Ci mmol-1 ) was purchased from Dupont NEN (Boston, MA, USA).

[6] = test system: serum PSA; assay: Serum PSA (ELISA) in LNCaP tumour-bearing SCID mice; type: in vivo, male SCID mice; details: first experiment, 50 mg kg-1 day-1, 28 days
Excerpt: Prostate cancer is the most common malignancy and the second leading cause of cancer-related deaths among men in the US and the UK (Shibata et al, 1998). […] Steroidal 17-hydroxylase/C17,20 -lyase (P450c17) (EC 1.14.99.0) was selected as the target enzyme for inhibition, as this is a key regulatory enzyme of androgen synthesis. P450c17 catal- yses two sequential reactions in the steroid biosynthetic pathway and converts pregnenolone and progesterone to the C-19 andro- gens, dehydroepiandrosterone and androstenedione respectively. This enzyme has an identical amino acid sequence in testicular and adrenal tissues (Chung et al, 1987). […] In order to evaluate the effectiveness of these inhibitors we developed a multi-step system, which utilized the LNCaP human prostate cancer cell line. LNCaP cells remain the only androgen receptor (AR)-positive prostate cancer cell line, that can be readily grown in tissue culture (Horoszewicz et al, 1983). These cells respond to androgens with increased cell proliferation and elevated expression of prostate specific antigen (PSA) (Berns et al, 1993). LNCaP cells at early passages are not only androgen-responsive, but also androgen- dependent (Pousette et al, 1997). This is similar to the situation in most tumours of prostatic cancer patients, which are initially highly responsive and dependent on androgens. […] Therefore, we employed LNCaP cells as a model for evaluating the effectiveness of our new inhibitors of androgen synthesis. In this study the compounds selected for evaluation were two groups of azolyl steroids. […] Here we report on the application of LNCaP-CYP17-transfected cells for determining the inhibitory potencies of the new compounds against the P450c17 enzyme. […] We designed and evaluated two groups of azolyl steroids: 5-non-competitive inhibitors (5NCIs), VN/63-1, VN/85-1, VN/87-1 and their corresponding 4 derivatives (4NCIs), VN/107-1, VN/108-1 and VN/109-1. The human P450c17 gene was transfected into LNCaP human prostate cancer cells, and the resultant LNCaP- CYP17 cells were utilized to evaluate the inhibitory potency of the new azolyl steroids. […] We further evaluated our inhibitors in male severe combined immuno- deficient mice bearing LNCaP tumour xenografts. […] We also utilized wild-type LNCaP prostatic carcinoma cells for evaluating the direct effects of new azolyl steroids on proliferation of these cells in vitro and in vivo. MATERIALS AND METHODS Materials The human prostate cancer cell line LNCaP was obtained from the American Type Culture Collection (Rockville, MD, USA). RPMI- 1640 medium, trypsin-EDTA (0.25%/0.02%), penicillin/strepto- mycin (P/S), geniticin (G418), and LipofectAMINE were from Gibco-BRL (Grand Island, NY, USA). Fetal bovine serum (FBS) was obtained from Summit Biotechnology Inc. (Fort Collins, CO, USA) and steroid-free FBS was prepared as described previously (Klus et al, 1996). Phenol red free IMEM and trypsin-versine were purchased from Biofluids Inc. (Rockville, MD, USA). Chloroform and acetonitrile were purchased from JT Baker, Inc (Phillipsburg, NJ, USA). Hydroxypropyl cellulose (HPC) was purchased from Sigma Chemical Co. (St Louis, MO, USA). The PSA enzyme- linked immunusorbent assay (ELISA) kit was from DSL Inc. (Webster, TX, USA). Matrigel was generously supplied by Dr Hynda Kleinman (NIH, Bethesda, MD, USA). […]

[7] = test system: serum testosterone; assay: Serum testosterone (RIA) in SCID mice; type: in vivo, male SCID mice; details: Table 2, first experiment, 28 days of treatment, 50 mg kg-1 day-1; control 1.043
Excerpt: as §1

[8] = test system: LNCaP tumour xenografts; assay: LNCaP tumour xenograft growth in male SCID mice; type: in vivo; details: first experiment
Excerpt: as §1

[9] = test system: LNCaP cells; assay: DHT-stimulated wild-type LNCaP cell growth; type: cell-based, human; details: 0.03 nM DHT, 9 days
Excerpt: as §1

[10] = test system: LNCaP cells; assay: Testosterone-stimulated wild-type LNCaP cell growth; type: cell-based, human
Excerpt: as §1

C[C@]12CCC(=O)C=C1CCC1C2CC[C@]2(C)C(n3ccnc3)=CCC12 (stereo partly drawn) [VN/108-1]
IC50 [1]: 0.00296 ± 0.00078 µM | Effect on LNCaP cell growth in absence of androgens [2]: stimulated cell growth in absence of androgens | IC50 [3]: 0.142 µM | Character at LNCaP AR [4]: partial agonist of LNCaP AR | Serum DHT [5]: 122.1 pg/mL | Serum PSA levels versus control [6]: lowest levels of serum PSA; also recorded: significantly lower | Serum Testosterone [7]: 0.081 ng/mL | Inhibition of LNCaP tumour growth (tumour volume) ([8]; 50 mg kg-1 day-1, 4 weeks): 9% | Effect on tumour growth or tumour weights ([8]; 50 mg kg-1 day-1, 28 days): no significant effects on tumour growth or tumour weights | Concentration that completely blocked DHT stimulation [9]: 5.0 µM | Concentration that completely inhibited the growth stimulatory effect of testosterone ([10]; 0.1 nM testosterone, 9 days): 5 µM | Effect on growth-stimulating effects of androgens ([10]; wild-type LNCaP cells, testosterone or DHT): blocked the growth-stimulating effects of androgens
